{"source": "patent US6403581B1", "about": "“Method of inhibition of farnesyl-protein transferase using substituted benz (cd) indol-2-imine and-amine derivatives” (American Cyanamid Company, priority 2000, dated 2002)", "key": {"[1]": {"target": "T1, farnesyl-protein transferase (FPTase) (Homo sapiens, UniProt P49354+P49356)", "assay": "in vitro FPTase inhibition, H-Ras as substrate for farnesylation", "type": "biochemical", "conditions": "H-Ras used as substrate for farnesylation", "procedure": "(§1) Enzyme test procedure: The FPTase inhibition in vitro assay was performed according to the method as described by James, G. L., Brown, M. S., and Goldstein, J. L., Methods in Enzymology, 1995, 255, 38-46; and Garcia, M. A., et al., J. Biol. Chem., 1993, 268, 18415-18420.\n(§2) Materials—Purified FPTase (Moomaw, J. F. and Casey, P. J., J. Biol. Chem., 1992, 267, 17438-17443), purified His6-Ras, inhibitor compounds at 10 mg/ml or 10 mM in 100% DMSO, ^3H-FPP (50,000 dpm/pmol) Amersham, TCA/SDS (6%/2%), TCA (6%), Glass fiber filters ([…]), vacuum manifold or 96 well filtration plates.\n(§3) Methods—1. Dilute FPTase inhibitors from stock solutions to 2.5× in 2.5% DMSO, 10 mM DTT, 0.5% octyl-B-glucoside. 2. Solution #1 is added to FPTase reaction in a volume of […]. 3. Standard reaction mix, […], contains 50 mM Tris (7.5),[…], 3 mM MgCl2, 20 mM KCl, 5 mM DTT, 0.2% octyl-B-glucoside, 1% DMSO, […], 10 ng FPTase, and various concentrations of FPTase inhibitors. 4. Incubate for 30-90 min at 25° C. 5. Stop reactions with TCA/SDS (6%/2%), hold at 4° C. for 45-60 min. 6. Filter by manifold or 96 well plate, wash filter 3-5× with TCA (6%). 7. Add scintillant to filters, measure ^3H-FPP incorporation into Ras protein.\n(§4) Analysis of Results—Percent inhibition by test compounds is determined by the following:\n(§5) (cpm from precipitated Ras with test compounds)−(background cpm)×100=% inhibition.\n(§6) (cpm from precipitated Ras without test compounds)−(background cpm)"}, "[2]": {"target": "T1, farnesyl-protein transferase (FPTase)", "assay": "in vitro FPTase inhibition, K-Ras as substrate for farnesylation", "type": "biochemical", "conditions": "K-Ras used as substrate for farnesylation", "procedure": "as §1, §2, §3, §4, §5, §6"}}, "note": "pIC50: −log10 of the molar value. Where a name gives a salt, the structure may show the parent alone.", "data": [{"compound": "CCCCCCCCN(CCCn1ccnc1)C1=Nc2cccc3cccc1c23", "note": "[Example 1, N-[3-(1H-Imidazol-1-yl)-propyl]-N-octyl-benz[cd]indol-2-amine, Fumarate (1:2)]", "values": [{"measurement": "pIC50", "setting": "[1]", "result": 5.92}, {"measurement": "pIC50", "setting": "[2]", "result": 5.10}]}, {"compound": "Ic1ccc2c3c(cccc13)C(NCCCCn1ccnc1)=N2", "note": "[Example 2, N-[4-(1H-Imidazol-1-yl)-butyl]-6-iodo-benz[cd]indol-2-amine]", "values": [{"measurement": "pIC50", "setting": "[1]", "result": 5.17}]}, {"compound": "CN1C(=NCCCn2ccnc2)c2cccc3c(CO)ccc1c23", "note": "[Example 3, 1,2-Dihydro-2-[[3-(1H-imidazol-1-yl)propyl]imino]-1-methyl-benz[cd]indole-6-methanol, Fumarate (1:1)]", "values": [{"measurement": "pIC50", "setting": "[1]", "result": 5.60}, {"measurement": "pIC50", "setting": "[2]", "result": "< 5.00"}]}, {"compound": "c1ccc(CN2C(=NCCCCn3ccnc3)c3cccc4cccc2c34)cc1", "note": "[Example 4, N-[1-(Phenylmethyl)benz[cd]indol-2(1H)-ylidene]-1H-imidazole-1-butanamine, Fumarate (1:2)]", "values": [{"measurement": "pIC50", "setting": "[1]", "result": 5.55}, {"measurement": "pIC50", "setting": "[2]", "result": "< 5.00"}]}, {"compound": "N#CCCCCN1C(=NCCCn2ccnc2)c2cccc3cccc1c23", "note": "[Example 5, 2-[[3-(1H-Imidazol-1-yl)propyl]imino]-benz[cd]indole-1(2H)-pentanenitrile]", "values": [{"measurement": "pIC50", "setting": "[1]", "result": 6.49}, {"measurement": "pIC50", "setting": "[2]", "result": 5.32}]}, {"compound": "c1cc2c3c(cccc3c1)N(CCCN1C(=NCCCn3ccnc3)c3cccc4cccc1c34)C2=NCCCn1ccnc1", "note": "[Example 6, N,N′-[1,3-Propanediylbis(benz[cd]indol-1(2H)-yl-2-ylidene)]bis-1H-imidazole-1-propanamine]", "values": [{"measurement": "pIC50", "setting": "[1]", "result": 5.65}, {"measurement": "pIC50", "setting": "[2]", "result": "< 5.00"}]}, {"compound": "CCCCCCN1C(=NCCCn2ccnc2)c2cccc3cccc1c23", "note": "[Example 7, N-(1-Hexylbenz[cd]indol-2(1H)-ylidene)-1H-imidazole-1-propanamine, Fumarate (1:2)]", "values": [{"measurement": "pIC50", "setting": "[1]", "result": 5.74}, {"measurement": "pIC50", "setting": "[2]", "result": "< 5.00"}]}, {"compound": "c1cncc(CN2C(=NCCCn3ccnc3)c3cccc4cccc2c34)c1", "note": "[Example 9, N-[1-(3-Pyridinylmethyl)benz[cd]indol-2(1H)-ylidene]-1H-imidazole-1-propanamine]", "values": [{"measurement": "pIC50", "setting": "[1]", "result": 5.70}, {"measurement": "pIC50", "setting": "[2]", "result": "< 5.00"}]}, {"compound": "c1ccc(CN2C(=NCCCn3ccnc3)c3cccc4cccc2c34)cc1", "note": "[Example 10, N-[1-(Phenylmethyl)benz[cd]indol-2(1H)-ylidene]-1H-imidazole-1-propanamine, Fumarate (1:2)]", "values": [{"measurement": "pIC50", "setting": "[1]", "result": 6.19}]}, {"compound": "c1ccc(CCCN2C(=NCCCn3ccnc3)c3cccc4cccc2c34)cc1", "note": "[Example 11, N-[1-(3-Phenylpropyl)benz[cd]indol-2(1H)-ylidene]-1H-imidazole-1-propanamine, Fumarate (1:2)]", "values": [{"measurement": "pIC50", "setting": "[1]", "result": 6.22}, {"measurement": "pIC50", "setting": "[2]", "result": 5.02}]}, {"compound": "c1ccc(OCCCN2C(=NCCCn3ccnc3)c3cccc4cccc2c34)cc1", "note": "[Example 12, N-[1-(3-Phenoxypropyl)benz[cd]indol-2-(1H)-ylidene]-1H-imidazole-1-propanamine, Dihydrochloride]", "values": [{"measurement": "pIC50", "setting": "[1]", "result": 5.82}]}, {"compound": "COc1cccc(CN2C(=NCCCn3ccnc3)c3cccc4cccc2c34)c1", "note": "[Example 13, N-[1-[(3-Methoxyphenyl)methyl]benz[cd]indol-2(1H)-ylidene]-1H-imidazole-1-propanamine]", "values": [{"measurement": "pIC50", "setting": "[1]", "result": 6.40}, {"measurement": "pIC50", "setting": "[2]", "result": "< 5.00"}]}, {"compound": "FC(F)(F)c1cccc(CN2C(=NCCCn3ccnc3)c3cccc4cccc2c34)c1", "note": "[Example 14, N-[1-[[3-(Trifluoromethyl)phenyl]methyl]benz[cd]indol-2(1H)-ylidene]-1H-imidazole-1-propanamine]", "values": [{"measurement": "pIC50", "setting": "[1]", "result": 6.70}, {"measurement": "pIC50", "setting": "[2]", "result": 5.07}]}, {"compound": "Clc1ccc(CN2C(=NCCCn3ccnc3)c3cccc4cccc2c34)cc1", "note": "[Example 15, N-[1-[(4-Chlorophenyl)methyl]benz[cd]indol-2(1H)-ylidene]-1H-imidazole-1-propanamine]", "values": [{"measurement": "pIC50", "setting": "[1]", "result": 6.74}]}, {"compound": "c1ccc(N2C(=NCCCn3ccnc3)c3cccc4cccc2c34)cc1", "note": "[Example 16, N-(1-Phenylbenz[cd]indol-2(1H)-ylidene)-1H-imidazole-1-propanamine]", "values": [{"measurement": "pIC50", "setting": "[1]", "result": 5.60}, {"measurement": "pIC50", "setting": "[2]", "result": "< 5.00"}]}, {"compound": "c1cc2c3c(cccc3c1)C(N1CCC(Cn3ccnc3)CC1)=N2", "note": "[Example 17, 2-[4-(1H-Imidazol-1-ylmethyl)-1-piperidinyl]-benz[cd]indole, Monohydriodide]", "values": [{"measurement": "pIC50", "setting": "[1]", "result": 5.70}, {"measurement": "pIC50", "setting": "[2]", "result": "< 5.00"}]}, {"compound": "Clc1ccc2c3c(cccc13)C(=NCCCn1ccnc1)N2Cc1ccccc1", "note": "[Example 18, N-[6-Chloro-1-(phenyl-methyl)benz[cd]indol-2(1H)-ylidene]-1H-imidazole-1-propanamine]", "values": [{"measurement": "pIC50", "setting": "[1]", "result": 6.10}, {"measurement": "pIC50", "setting": "[2]", "result": "< 5.00"}]}, {"compound": "Clc1ccc2c3c(cccc13)C(=NCCc1cccnc1)N2Cc1ccccc1", "note": "[Example 19, N-[6-Chloro-1-(phenylmethyl)benz[cd]indol-2(1H)-ylidene]-3-pyridinethanamine]", "values": [{"measurement": "pIC50", "setting": "[1]", "result": 7.00}, {"measurement": "pIC50", "setting": "[2]", "result": "< 5.00"}]}, {"compound": "Clc1ccc(CN2C(=NCCCn3ccnc3)c3cccc4c(I)ccc2c34)cc1", "note": "[Example 20, N-(1-(4-Chlorobenzyl)-6-iodobenzo[cd]indol-2-(1H)-ylidene)-3-(1H-imidazol-1-yl)-1-propanamine]", "values": [{"measurement": "pIC50", "setting": "[1]", "result": 6.05}]}, {"compound": "Ic1ccc2c3c(cccc13)C(=NCCCn1ccnc1)N2", "note": "[Example 21, 3-(1H-Imidazol-1-yl)-N-(6-iodobenzo[cd]indol-2(1H)-ylidene)-1-propanamine]", "values": [{"measurement": "melting point", "result": "185 to 188", "unit": "°C"}]}, {"compound": "Ic1ccc2c3c(cccc13)C(=NCc1ccccc1)N2", "note": "[Example 22, N-Benzyl-N-(6-iodobenzo[cd]indol-2(1H)-ylidene)amine]", "values": [{"measurement": "melting point", "result": "160 to 163", "unit": "°C"}]}, {"compound": "N-(1-Hexylbenz[cd]indol-2(1H)-ylidene)-3-pyridinebutanamine, Fumarate (2:3) [Example 8]", "values": [{"measurement": "pIC50", "setting": "[1]", "result": 5.62}, {"measurement": "pIC50", "setting": "[2]", "result": "< 5.00"}]}]}
